# Measurements as given in paper PMC6193035, “Novel small molecules affecting cell membrane as potential therapeutics for avian pathogenic Escherichia coli” (Scientific Reports, 2018).
# Test system: APEC O78
# Test: Primary screening, growth inhibition of APEC O78
# Assay type: cell-based, Escherichia coli
# Details: 100 µM SM; no APEC recovered on LB agar subculture
# Procedure: To identify the APEC growth inhibitors, SM library was screened against APEC O78 which is one of the most frequently isolated APEC serotypes from avian colibacillosis cases. One microlitre SMs (final concentration of 100 µM) were added using a slotted pin tool (V and P Scientific, San Diego, CA, USA) to the wells of the 96-well plate containing 100 µL of overnight grown 0.05 OD600 (7 × 10^7 CFU/mL) adjusted APEC culture. Controls (four replicates/plate) containing 1 µL of 100% DMSO (final concentration of 1%), 1 µL chloramphenicol (CHL, #C0378 Sigma-Aldrich) (20 µg/mL), 1 µL kanamycin (KAN, #60615 Sigma-Aldrich) (50 µg/mL), and 100 µL of M63 media were included. To determine the effect of DMSO on APEC growth, antimicrobial activity of DMSO was determined at different concentrations (1% to 32%) in a separate experiment. Plate was then incubated at 37 °C for 12 h in Sunrise - Absorbance microplate reader (Tecan Group Ltd. San Jose, CA) with kinetic OD600 measurement every 30 mins. The quality of screening was assessed by calculating the Z′-score as described previously. The growth inhibition of APEC was calculated by using the formula as previously described[13],[14]. The SMs inhibiting at least 80% of the APEC growth were selected as primary hits. […]
smiles,measurement,value
CC1CCCN(CCC(=O)c2ccc(Br)cc2)C1 (stereo not shown) [SM1],bactericidal effect in primary screening,bactericidal
